From patent US6436960B1, “Farnesyl transferase inhibitors having a piperidine structure and process for preparation thereof” (LG Chemical Ltd., priority 1998, dated 2002)

Legend:
Ras farnesyl transferase [1] = molecular target: T1, Ras farnesyl transferase (Rattus norvegicus, UniProt Q02293+Q04631); assay: in vivo (cellular) Ras farnesyl transferase inhibitory activity, Rat2 cells transformed with H-Ras fused with polybasic lysine domain of K-Ras; assay type: cell-based; settings: Rat2 cell line transformed with H-Ras substituted with polybasic lysine domain at C-terminus of K-Ras; concentration inhibiting 50% of farnesyl binding; read-out: K-Ras CIC50
T1 construct: endogenous in cells; host or cells: Rat2 fibroblasts transformed with C-Harvey-Ras, or with H-Ras carrying the K-Ras C-terminal polybasic lysine domain
Experimental: (§1) In the present experiment, Rat2 cell line which expresses C-Harvey-Ras protein having transforming activity and Rat2 cell line(Korean patent application No. 97-14409) which is transformed with fused protein of H-Ras substituted with polybasic lysine domain at C-terminus of K-Ras were used. The experiment was performed by the modified Declue's method(Declue. J. E. et al., Cancer Research, 1991, 51, 712). Hereinafter, the experimental method will be described in more detail.
(§2) 3×10^5 cells of transformed Rat2 fibroblast cell line were sprayed on 60 mm cell cultivation dish and cultivated for 48 hours in a cell incubator at 37° C. and after 50% or more of density was reached, it was treated with the test compounds. The compound according to the present invention dissolved in dimethylsulfoxide(DMSO) was used. 1% concentration of dimethylsulfoxide was used in both control and test groups. After 4 hours from the treatment with the compound, methionine labeled with 150 μCi of radioactive isotope [^35S] per 1 ml of medium was added and after cultivating for 20 hours, the cells were washed with physiological saline water. The cells were lysed using 1 ml of cold cell lysis buffer solution(50 mM of Sodium HEPES buffer solution containing 5 mM of magnesium chloride, 1 mM of DTT, 1% NP 40, 1 mM of EDTA, 1 mM of PMSF, 2 μM of leupeptin, 2 μM of pepstatin A and 2 μM of antipain) and the supernatant wherein the cells were lysed was obtained by high-velocity centrifugation of 12,000 g×5 minutes. The amount of radioisotope in the supernatant was measured and standardized to obtain a quantitative result in immunoprecipitation reaction and then, Y13-259, a monoclonal antiboby specifically binding to Ras protein(Furth, M. E. et al., J. Virol, 1982, 43, 294) was added and reacted for 15 hours at 4° C. Protein A(combined with goat anti-murine imunoglobulin antibody)-agarose suspension was added to the solution and reacted for 1 hour at 4° C. and then, to remove the unspecific binding product, immunoprecipitates were washed with a buffer solution (50 mM Tris chloride buffer solution containing 50 mM of sodium chloride, 0.5% of sodium dioxycholate, 0.5% of NP 40 and 0.1% of SDS). The precipitates were added to a buffer solution for electrophoresis and boiled and then, electrophoresis was performed using 13.5% of SDS polyacrylamide gel. After electrophoresis, the gel was fixed and dried. Then, the gel was exposed to X-ray film, developed and printed. From the result of the experiment, intensities of band of protein combined with or without farnesyl of Ras protein were measured, and the concentration of the test compound inhibiting 50% of farnesyl binding was defined as CIC50, an in vivo Ras farnesyl transferase inhibitory activity.

Ras farnesyl transferase [2] = molecular target: T1, Ras farnesyl transferase; assay: in vivo (cellular) Ras farnesyl transferase inhibitory activity, Rat2 cells expressing C-Harvey-Ras; assay type: cell-based; settings: Rat2 cell line expressing C-Harvey-Ras; concentration inhibiting 50% of farnesyl binding of Ras protein; read-out: H-Ras CIC50
Experimental: as §1, §2

Ras farnesyl transferase [3] = molecular target: T2, Ras farnesyl transferase (Homo sapiens, UniProt P49354+P49356); assay: in vitro inhibitory activity for Ras farnesyl transferase, K-Ras substrate; assay type: biochemical; settings: recombinant Ras farnesyl transferase, K-Ras substrate; read-out: K-Ras IC50
T2 construct: made in house
Experimental: In the present experiment, Ras farnesyl transferase produced by genetic recombination techniques according to the improved Pompliano's method (Pompliano et al., Biochemistry, 1992, 31, 3800) was used, […] Appln. No. 97-14409 was used after it has been purified according to the known method(see, Chung et al., Biochimica et Biophysica Acta, 1992, 278, 1129).
(§3) The enzyme reaction was performed in 50 μl of 50 mM Soduam HEPES buffer solution containing 25 mM of potassium chloride, 25 mM of magnesium chloride, 10 mM of DTT and 50 μM of zinc chloride. 1.5 μM of Ras substrate protein, 0.15 μM of tritium-farnesylpyrophosphate and 4.5 nM of farnesyl transferase were used.
(§4) More specifically, in the initial step, farnesyl transferase was added to the above buffer solution, reaction was maintained for 30 minutes at 37° C. and then the reaction was stopped by adding 1 ml of ethanol solution containing 1M HCl. The formed precipitates were adsorbed to GF/B filter using Hopper harvestor(Hopper #FH 225V) for filter-binding, washed with ethanol, and then radioactivity of the dried filter was measured using LKB β counter. Enzyme titer was measured in the unsaturated state of substrate where the concentrations of Ras substrate protein and farnesyl transferase have quantitative relationship. The compound according to the present invention dissolved in dimethyl sulfoxide(DMSO) was added to the reaction solution in an amount of less than 5% of the total reaction solution, and then the enzyme inhibitory activity thereof was measured. The enzyme inhibitory activity was represented by percentage of the amount of farnesyl incorporated into the Ras substrate protein in the presence of the test compound to that in the absence of the test compound. IC50 of the test compound was defined as the concentration at which 50% of the enzyme activity was inhibited.

Ras farnesyl transferase [4] = molecular target: T2, Ras farnesyl transferase; assay: in vitro inhibitory activity for Ras farnesyl transferase, H-Ras substrate; assay type: biochemical; settings: recombinant Ras farnesyl transferase, H-Ras substrate, tritium-farnesylpyrophosphate, 30 minutes at 37° C.; read-out: H-Ras IC50
Experimental: In the present experiment, Ras farnesyl transferase produced by genetic recombination techniques according to the improved Pompliano's method (Pompliano et al., Biochemistry, 1992, 31, 3800) was used, and Ras substrate(Ras-CVLS) protein described in Korean Patent Appln. No. 97-14409 was used after it has been purified according to the known method(see, Chung et al., Biochimica et Biophysica Acta, 1992, 278, 1129).
as §3, §4

CN1CCN(C(=O)c2cn(Cc3cncn3CC3CCN(C(=O)CCc4ccccc4)CC3)cc2-c2cccc3ccccc23)CC1 [Compound 43, 3-(4-Methylpiperazin-1-yl)carbonyl-4-(naphthalen-1-yl)-1-{1-[1-(2-phenylethylcarbonyl)-piperidin-4-yl]methyl-1H-imidazol-5-yl}methyl-1H-pyrrole]
IC50 (Ras farnesyl transferase [1]): 10000 to 50000 nM
IC50 (Ras farnesyl transferase [2]): 50 nM
IC50 (Ras farnesyl transferase [3]): 10 nM
IC50 (Ras farnesyl transferase [4]): 2 nM

COCCN(C)C(=O)c1cn(Cc2cncn2CC2CCNCC2)cc1-c1cccc2ccccc12 [Compound 6, 3-[N-(2-Methoxyethyl)-N-methyl]carbamoyl-4-(naphthalen-1-yl)-1-[1-(piperidin-4-ylmethyl)-1H-imidazol-5-ylmethyl]-1H-pyrrole]
IC50 (Ras farnesyl transferase [1]): 1000 to 10000 nM
IC50 (Ras farnesyl transferase [2]): 10 to 100 nM
IC50 (Ras farnesyl transferase [3]): 10 to 1000 nM
IC50 (Ras farnesyl transferase [4]): 8 nM

COCCN(C)C(=O)c1cn(Cc2cncn2CC2CCN(C(=O)c3csc(C(C)C)n3)CC2)cc1-c1cccc2ccccc12 [Compound 29]
IC50 (Ras farnesyl transferase [1]): 10000 to 50000 nM
IC50 (Ras farnesyl transferase [2]): 10 to 100 nM
IC50 (Ras farnesyl transferase [3]): 10 to 100 nM
IC50 (Ras farnesyl transferase [4]): 2.5 nM

COCCN(C)C(=O)c1cn(Cc2cncn2CC2CCN(C(=O)Cc3ccc(-c4ccccc4)cc3)CC2)cc1-c1cccc2ccccc12 [Compound 16, 1-{1-[1-(4-Biphenylacetyl)-piperidin-4-ylmethyl]-1H-imidazol-5-ylmethyl}-3-[N-(2-methoxyethyl)-N-methyl]carbamoyl-4-(naphthalen-1-yl)-1H-pyrrole]
IC50 (Ras farnesyl transferase [1]): 1000 to 50000 nM
IC50 (Ras farnesyl transferase [2]): 10 to 100 nM
IC50 (Ras farnesyl transferase [3]): 10 to 1000 nM
IC50 (Ras farnesyl transferase [4]): 1 to 10 nM

COCCN(C)C(=O)c1cn(Cc2cncn2CC2CCN(C(=O)OCc3ccc4ccccc4c3)CC2)cc1-c1cccc2ccccc12 [Compound 20]
IC50 (Ras farnesyl transferase [1]): 1000 to 10000 nM
IC50 (Ras farnesyl transferase [2]): 10 nM
IC50 (Ras farnesyl transferase [3]): 10 nM
IC50 (Ras farnesyl transferase [4]): 6 nM

CC(=O)N1CCC(Cn2cncc2Cn2cc(C(=O)N3CCOCC3)c(-c3cccc4ccccc34)c2)CC1 [Compound 3, 1-[1-(1-Acetylpiperidin-4-ylmethyl)-1H-imidazol-5-ylmethyl]-3-(morpholinyl)carbonyl-4-(naphthalen-1-yl)-1H-pyrrole]
IC50 (Ras farnesyl transferase [1]): 10000 to 50000 nM
IC50 (Ras farnesyl transferase [2]): 10 to 100 nM
IC50 (Ras farnesyl transferase [3]): 16 nM
IC50 (Ras farnesyl transferase [4]): 1 nM

COC(=O)N1CCC(Cn2cncc2Cn2cc(C(=O)N3CCN(C)CC3)c(-c3cccc4ccccc34)c2)CC1 [Compound 40, 1-[1-(1-Methoxycarbonylpiperidin-4-yl)methyl-1H-imidazol-5-yl]methyl-3-(4-methylpiperazin-1-yl)carbonyl-4-(naphthalen-1-yl)1H-pyrrole]
IC50 (Ras farnesyl transferase [1]): 10000 to 50000 nM
IC50 (Ras farnesyl transferase [2]): 30 nM
IC50 (Ras farnesyl transferase [3]): 4.2 nM
IC50 (Ras farnesyl transferase [4]): 1.6 nM

COCCN(C)C(=O)c1cn(Cc2cncn2CC2CCN(C(=O)N3CCCc4ccccc43)CC2)cc1-c1cccc2ccccc12 [Compound 31, 3-[N-(2-Methoxyethyl)-N-methyl]carbamoyl-4-(naphthalen-1-yl)-1-{1-[1-(1,2,3,4-tetrahydroquinolin-1-ylcarbonyl)piperidin-4-ylmethyl]-1H-imidazol-5-ylmethyl}-1H-pyrrole]
IC50 (Ras farnesyl transferase [1]): 10000 to 50000 nM
IC50 (Ras farnesyl transferase [2]): 10 to 100 nM
IC50 (Ras farnesyl transferase [3]): 20 nM
IC50 (Ras farnesyl transferase [4]): 4 nM

CN1CCN(C(=O)c2cn(Cc3cncn3CC3CCN(C(=O)OCc4ccc5ccccc5c4)CC3)cc2-c2cccc3ccccc23)CC1 [Compound 45, 3-(4-Methylpiperazin-1-yl)carbonyl-4-(naphthalen-1-yl)-1-{1-[1-(naphthalen-2-ylmethyloxy)carbonylpiperidin-4-yl]methyl-1H-imidazol-5-yl}methyl-1H-pyrrole]
IC50 (Ras farnesyl transferase [1]): 10000 nM
IC50 (Ras farnesyl transferase [2]): 35 nM
IC50 (Ras farnesyl transferase [3]): 12 nM
IC50 (Ras farnesyl transferase [4]): 1.8 nM

COCCN(C)C(=O)c1cn(Cc2cncn2CC2CCN(C(=O)/C=C/c3ccccc3)CC2)cc1-c1cccc2ccccc12 [Compound 28]
IC50 (Ras farnesyl transferase [1]): 1000 to 10000 nM
IC50 (Ras farnesyl transferase [2]): 10 to 100 nM
IC50 (Ras farnesyl transferase [3]): 8 nM
IC50 (Ras farnesyl transferase [4]): 12 nM

COCCN(C)C(=O)c1cn(Cc2cncn2CC2CCN(S(C)(=O)=O)CC2)cc1-c1cccc2ccccc12 [Compound 8, 3-[N-(2-Methoxyethyl)-N-methyl]carbamoyl-1-[1-(1-methylsulfonyl-piperidin-4-ylmethyl)-1H-imidazol-5-ylmethyl]-4-(naphthalen-1-yl)-1H-pyrrole]
IC50 (Ras farnesyl transferase [1]): 10000 to 50000 nM
IC50 (Ras farnesyl transferase [2]): 10 to 100 nM
IC50 (Ras farnesyl transferase [3]): 10 to 100 nM
IC50 (Ras farnesyl transferase [4]): 1.2 nM

CC(C)c1nc(C(=O)N2CCC(Cn3cncc3Cn3cc(C(=O)N4CCN(C)CC4)c(-c4cccc5ccccc45)c3)CC2)cs1 [Compound 51]
IC50 (Ras farnesyl transferase [1]): 10000 to 50000 nM
IC50 (Ras farnesyl transferase [2]): 5 nM
IC50 (Ras farnesyl transferase [3]): 10 nM
IC50 (Ras farnesyl transferase [4]): 3 nM

O=C(OCc1ccccc1)N1CCC(Cn2cncc2Cn2cc(C(=O)N3CCOCC3)c(-c3cccc4ccccc34)c2)CC1 [Compound 1, 1-[1-(1-Benzyloxycarbonyl-piperidin-4-ylmethyl)-1H-imidazol-5-ylmethyl]-3-(morpholin-4-yl)carbonyl-4-(naphthalen-1-yl)-1H-pyrrole]
IC50 (Ras farnesyl transferase [1]): 1000 to 10000 nM
IC50 (Ras farnesyl transferase [2]): 100 nM
IC50 (Ras farnesyl transferase [3]): 2400 nM
IC50 (Ras farnesyl transferase [4]): 8.5 nM

COCCN(C)C(=O)c1cn(Cc2cncn2CC2CCN(C(C)=O)CC2)cc1-c1cccc2ccccc12 [Compound 7, 1-[1-(1-Acetyl-piperidin-4-ylmethyl)-1H-imidazol-5-ylmethyl]-3-[N-(2-methoxyethyl)-N-methyl]carbamoyl-4-(naphthalen-1-yl)-1H-pyrrole]
IC50 (Ras farnesyl transferase [1]): 10000 to 100000 nM
IC50 (Ras farnesyl transferase [2]): 10 to 100 nM
IC50 (Ras farnesyl transferase [3]): 10 to 100 nM
IC50 (Ras farnesyl transferase [4]): 1.8 nM

CS(=O)(=O)N1CCC(Cn2cncc2Cn2cc(C(=O)N3CCOCC3)c(-c3cccc4ccccc34)c2)CC1 [Compound 4, 1-[1-(1-Methylsulfonyl-piperidin-4-ylmethyl)-1H-imidazol-5-ylmethyl]-3-(morpholin-4-yl)carbonyl-4-(naphthalen-1-yl)-1H-pyrrole]
IC50 (Ras farnesyl transferase [1]): 10000 to 50000 nM
IC50 (Ras farnesyl transferase [2]): 10 to 100 nM
IC50 (Ras farnesyl transferase [3]): 26 nM
IC50 (Ras farnesyl transferase [4]): 3.6 nM

COCCN(C)C(=O)c1cn(Cc2cncn2CC2CCN(C(=O)COc3ccccc3)CC2)cc1-c1cccc2ccccc12 [Compound 14, 3-[N-(2-Methoxyethyl)-N-methyl]carbamoyl-4-(naphthalen-1-yl)-1-[1-(1-phenoxyacetyl-piperidin-4-ylmethyl)-1H-imidazol-5-ylmethyl]-1H-pyrrole]
IC50 (Ras farnesyl transferase [1]): 1000 to 50000 nM
IC50 (Ras farnesyl transferase [2]): 10 to 100 nM
IC50 (Ras farnesyl transferase [3]): 10 to 1000 nM
IC50 (Ras farnesyl transferase [4]): 2.1 nM
